Test results reported in patent publication US20190248739A1 (NEWLINK GENETICS CORPORATION, priority 2015, published 2019).
Where a name gives a salt, the structure may show the parent alone. Marks after values point to notes of the source that are not given here. Values belong to the molecule of their own block, whether it stands above or below them. Where a SMILES comes first, the peptide text is derived from it. [ ]: non-standard residue; d: D form. dTrp(1-Me) = Cn1cc(C[C@@H](N)C(=O)O)c2ccccc21

How the values were obtained:
[1] = pharmacokinetic testing of indoximod prodrug salts in solid capsule formulation in rats; assay type: in vivo; details: rats; for increase in indoximod AUC versus equivalent molar dose of indoximod / increase in indoximod Cmax versus equivalent molar dose of indoximod: dose not given (Tables 10.2, 10.3); for % Change Cmax / % Change in AUC: vs indoximod free base, oral capsules
Experimental: These blends were formulated so that each capsule contained the same molar dose of each prodrug. […] The composition and uniformity of a representative sample of capsules from each batch was verified by weight and by LC-MS/MS to determine the average indoximod or prodrug content.
(§1) Rats were fasted 16 h prior to dosing to eliminate any confounding food effects, and food was returned 2 h after dosing.

[2] = pharmacokinetic testing of indoximod salts in capsule formulation in rats; assay type: in vivo; details: capsules
Experimental: Three dose levels were investigated: 37, 185 or 500 μmol/kg.
Capsules were manually filled and the composition uniformity of a representative sample of capsules from each batch was verified by weight and by LC-MS/MS to determine the average indoximod content.
as §1

[3] = hygroscopicity and stability of indoximod and its salts; assay type: physicochemical; details: Table 2, in % (unit assumed)
[4] = solubility of indoximod and its salts in water, buffers and SGF; assay type: physicochemical; details: 25° C.; for pH of the SGF solution (in brackets): SGF solubility test; for pH of the water solution (in brackets): water solubility test
[5] = pharmacokinetic testing of indoximod prodrugs in liquid formulation in mice; details: mice; for change in indoximod Cmax versus indoximod in suspension: oral, all doses tested (10, 50 and 100 mg/kg)
Experimental: Blood samples (0.1-0.2 mL) were collected from the femoral artery port from rats or by retro-orbital bleeding from mice and plasma was immediately collected by centrifugation and stored on dry ice to avoid prodrug hydrolysis after plasma collection. […] The pharmacokinetic parameters reflect the average of individual parameter values obtained from each individual rat (n) or one common parameter from a single pharmacokinetic curve derived from blood samples obtained from a group of mice (n).

[6] = Table 10.3, dose 37 μmol/kg, salt form free base
[7] = 37 μmol/kg, listed as Indoximod phosphate, phosphate
[8] = 185 μmol/kg, listed as Indoximod phosphate, phosphate
[9] = 500 μmol/kg, listed as Indoximod phosphate, phosphate
[10] = listed as Mesylate, methanesulfonate
[11] = Table 10.1, dose 37 μmol/kg, salt form free base
[12] = Table 10.2, dose 37 μmol/kg, salt form HCl
[13] = Table 10.2, dose 185 μmol/kg, salt form H3PO4
[14] = Table 10.2, dose 185 μmol/kg, salt form HCl

SMILES: CCOC(=O)[C@@H](Cc1cn(C)c2ccccc12)NC(=O)C[C@H](N)C(=O)OC.Cl [NLG-1585, methyl N^4-((R)-1-ethoxy-3-(1-methyl-1H-indol-3-yl)-1-oxopropan-2-yl)-L-asparaginate hydrochloride]
increase in indoximod AUC versus equivalent molar dose of indoximod ([1]; capsules): minor and non-statistically significant variations | increase in indoximod Cmax versus equivalent molar dose of indoximod ([1]; capsules): minor and non-statistically significant variations

% Change Cmax [1, 6]: 5% | % Change in AUC [1, 6]: −16%
SMILES: CCOC(=O)[C@@H](Cc1cn(C)c2ccccc12)NC(=O)[C@@H](N)CCC(N)=O [NLG-1672] (H-Gln-[dTrp(1-Me)]-OEt)

% Increase over indoximod Free Base (AUC) [2, 7]: significant increase | % Increase over indoximod Free Base (Cmax) [2, 7]: significant increase | % Increase over indoximod Free Base (AUC) ([2]; 37 μmol/kg, phosphate): 43% | % Increase over indoximod Free Base (Cmax) ([2]; 37 μmol/kg, phosphate): 40% | AUC(0 −> ∞) ([2]; 37 μmol/kg, phosphate): 558 ± 185 µM·h | Cmax ([2]; 37 μmol/kg, phosphate): 22.3 ± 9 µM | % Increase over indoximod Free Base (AUC) [2, 8]: significant increase | % Increase over indoximod Free Base (Cmax) [2, 8]: significant increase | % Increase over indoximod Free Base (AUC) ([2]; 185 μmol/kg, phosphate): 34% | % Increase over indoximod Free Base (Cmax) ([2]; 185 μmol/kg, phosphate): 96% | AUC(0 −> ∞) ([2]; 185 μmol/kg, phosphate): 1446 ± 645 µM·h | Cmax ([2]; 185 μmol/kg, phosphate): 40.9 ± 5 µM | % Increase over indoximod Free Base (AUC) [2, 9]: non-statistically significant decrease | % Increase over indoximod Free Base (Cmax) [2, 9]: significant decrease | % Increase over indoximod Free Base (AUC) ([2]; 500 μmol/kg, phosphate): −34% | % Increase over indoximod Free Base (Cmax) ([2]; 500 μmol/kg, phosphate): −51% | AUC(0 −> ∞) ([2]; 500 μmol/kg, phosphate): 1902 ± 1288 µM·h | Cmax ([2]; 500 μmol/kg, phosphate): 37.2 ± 10 µM | Hygroscopicity (0-80% RH) ([3]; phosphate): 1.7 | Solubility (25° C., mg/mL) SGF ([4]; phosphate): 9.83 (NA) mg/mL | Solubility (25° C., mg/mL) Water ([4]; phosphate): 8.32 (NA) mg/mL
SMILES: Cn1cc(C[C@@H](N)C(=O)O)c2ccccc21 [indoximod H3PO4, (R)-1-carboxy-2-(1-methyl-1H-indol-3-yl)ethan-1-aminium dihydrogen phosphate]

Solubility (25° C., mg/mL) SGF [4]: 6.0 mg/mL | pH of the SGF solution (in brackets) [4]: 1.84 | Solubility (25° C., mg/mL) Water [4]: 5.5 mg/mL | pH of the water solution (in brackets) [4]: 2.34
SMILES: CS(=O)(=O)O.Cn1cc(C[C@@H](N)C(=O)O)c2ccccc21.Cn1cc(C[C@@H](N)C(=O)O)c2ccccc21 [Hemi-Mesylate]

SMILES: Cn1cc(C[C@@H](NC(=O)CN)C(=O)O)c2ccccc21 [Cpd 05, N^α-(L-glycyl)-1-methyl-D-tryptophan] (H-Gly-[dTrp(1-Me)]-OH)
increase in indoximod AUC versus equivalent molar dose of indoximod ([1]; capsules): minor and non-statistically significant variations | increase in indoximod Cmax versus equivalent molar dose of indoximod ([1]; capsules): minor and non-statistically significant variations

change in indoximod AUC versus indoximod ([1]; capsules, 37-500 μmol/kg): statistically significant increase | change in indoximod Cmax versus indoximod ([1]; capsules, 37-500 μmol/kg): statistically significant increase
SMILES: CCOC(=O)[C@@H](Cc1cn(C)c2ccccc12)NC(=O)[C@@H](N)CCSC [NLG-3272, ethyl N^α-(L-methionyl)-1-methyl-D-tryptophanate] (H-Met-[dTrp(1-Me)]-OEt)

change in indoximod AUC versus indoximod ([5]; oral, 10, 50 and 100 mg/kg, percentage of increase decreases at higher doses): dose dependent increase | change in indoximod Cmax versus indoximod in suspension [5]: significant increase
SMILES: Cn1cc(C[C@@H](N)C(=O)OCC(O)CO)c2ccccc21.O=P(O)(O)O (stereo partly drawn) [NLG-1626, (2R)-1-(2,3-dihydroxypropoxy)-3-(1-methyl-1H-indol-3-yl)-1-oxopropan-2-dihydrogen phosphate]

increase in indoximod Cmax versus indoximod ([1]; capsules, 37-185 μmol/kg, methanesulfonate): significant increases
SMILES: CCOC(=O)[C@@H](Cc1cn(C)c2ccccc12)NC(=O)[C@@H](N)CC(C)C [NLG-1666, (S)-1-(((R)-1-ethoxy-3-(1-methyl-1H-indol-3-yl)-1-oxopropan-2-yl)amino)-4-methyl-1-oxopentan-2-aminium methanesulfonate]

increase in indoximod AUC versus equivalent molar dose of indoximod ([1]; capsules): less significant increases | increase in indoximod Cmax versus equivalent molar dose of indoximod ([1]; capsules): less significant increases
SMILES: Cn1cc(C[C@@H](N)C(=O)OCC(O)CO)c2ccccc21 (stereo partly drawn) [NLG-1628, (2R)-1-(2,3-dihydroxypropoxy)-3-(1-methyl-1H-indol-3-yl)-1-oxopropan-2-aminium sulfate]

change in indoximod Cmax versus indoximod in suspension [5]: significant increase | increase in indoximod Cmax versus indoximod ([1]; capsules, 37-185 μmol/kg): significant increases
SMILES: CCOC(=O)[C@@H](Cc1cn(C)c2ccccc12)NC(=O)[C@@H](N)CC(C)C.O=P(O)(O)O [NLG-1665]

Hygroscopicity (0-80% RH) [3]: 3.4
SMILES: O=S(=O)(O)O [Sulfate]

increase in indoximod AUC versus equivalent molar dose of indoximod ([1]; capsules, hydrochloride): less significant increases | increase in indoximod Cmax versus equivalent molar dose of indoximod ([1]; capsules, hydrochloride): less significant increases
SMILES: Cn1cc(C[C@@H](N)C(=O)OCC(O)CO)c2ccccc21 (stereo partly drawn) [NLG-1558, 2,3-dihydroxypropyl 1-methyl-D-tryptophanate hydrochloride]

% Increase over indoximod Free Base (AUC) ([2]; 37 μmol/kg, hydrogen sulfate): 42% | % Increase over indoximod Free Base (Cmax) ([2]; 37 μmol/kg, hydrogen sulfate): 42% | AUC(0 −> ∞) ([2]; 37 μmol/kg, hydrogen sulfate): 553 ± 196 µM·h | Cmax ([2]; 37 μmol/kg, hydrogen sulfate): 22.6 ± 7 µM
SMILES: Cn1cc(C[C@@H](N)C(=O)O)c2ccccc21 [indoximod H2SO4, (R)-1-carboxy-2-(1-methyl-1H-indol-3-yl)ethan-1-aminium hydrogen sulfate]

% Increase over indoximod Free Base (AUC) ([2]; 37 μmol/kg, methanesulfonate): 38% | % Increase over indoximod Free Base (Cmax) ([2]; 37 μmol/kg, methanesulfonate): 28% | AUC(0 −> ∞) ([2]; 37 μmol/kg, methanesulfonate): 537 ± 194 µM·h | Cmax ([2]; 37 μmol/kg, methanesulfonate): 20.3 ± 2 µM | Hygroscopicity (0-80% RH) [3, 10]: 0.12* | pH of the SGF solution (in brackets) [4, 10]: 1.43 | Solubility (25° C., mg/mL) SGF [4, 10]: 6.0 mg/mL | pH of the water solution (in brackets) [4, 10]: 1.84 | Solubility (25° C., mg/mL) Water [4, 10]: 5.1 mg/mL
SMILES: Cn1cc(C[C@@H](N)C(=O)O)c2ccccc21 [indoximod CH3SO3H, (R)-1-carboxy-2-(1-methyl-1H-indol-3-yl)ethan-1-aminium methanesulfonate]

% Change Cmax [1, 11]: −17% | % Change in AUC [1, 11]: −13%
SMILES: Cn1cc(C[C@@H](NC(=O)[C@@H](N)CCCCN)C(=O)O)c2ccccc21 [NLG-1676] (H-Lys-[dTrp(1-Me)]-OH)

SMILES: CCOC(=O)[C@@H](Cc1cn(C)c2ccccc12)NC(=O)[C@@H](N)CCC(N)=O [ethyl N^α-(L-glutaminyl)-1-methyl-D-tryptophanate] (H-Gln-[dTrp(1-Me)]-OEt)
increase in indoximod AUC versus equivalent molar dose of indoximod ([1]; capsules): minor and non-statistically significant variations | increase in indoximod Cmax versus equivalent molar dose of indoximod ([1]; capsules): minor and non-statistically significant variations

% Change Cmax [1, 12]: 16% | % Change in AUC [1, 12]: 24% | % Change Cmax [1, 13]: 118% | % Change in AUC [1, 13]: 66% | % Change Cmax [1, 14]: 345% | % Change in AUC [1, 14]: 181%
SMILES: CSCC[C@H](N)C(=O)N[C@H](Cc1cn(C)c2ccccc12)C(=O)O [NLG-3380] (H-Met-[dTrp(1-Me)]-OH)

change in indoximod AUC compared to indoximod ([1]; capsules, 500 μmol/kg): minor increase | change in indoximod Cmax compared to indoximod ([1]; capsules, 500 μmol/kg): minor increase | increase in indoximod Cmax versus indoximod ([1]; capsules, 37-185 μmol/kg): significant increases
SMILES: CCOC(=O)[C@@H](Cc1cn(C)c2ccccc12)NC(=O)[C@@H](N)CC(C)C.Cl [NLG-1564, ethyl N^α-(L-leucyl)-1-methyl-D-tryptophanate hydrochloride]

SMILES: Cn1cc(C[C@@H](NC(=O)[C@@H](N)CCCCN)C(=O)O)c2ccccc21 [N^α-(L-lysyl)-1-methyl-D-tryptophan] (H-Lys-[dTrp(1-Me)]-OH)
increase in indoximod AUC versus equivalent molar dose of indoximod ([1]; capsules): minor and non-statistically significant variations | increase in indoximod Cmax versus equivalent molar dose of indoximod ([1]; capsules): minor and non-statistically significant variations

increase in exposure (AUC) of indoximod versus indoximod ([1]; capsules, 37-185 μmol/kg): did not result in a significant increase | increase in indoximod Cmax versus indoximod ([1]; capsules, 37-185 μmol/kg): did not result in a significant increase
SMILES: CCOC(=O)[C@@H](Cc1cn(C)c2ccccc12)NC(=O)[C@@H](N)CC(C)C [NLG-1691, ethyl N^α-((S)-2-(λ^4-azanyl)-4-methylpentanoyl)-1-methyl-D-tryptophanate sulfate]

increase in indoximod AUC versus equivalent molar dose of indoximod ([1]; capsules, methanesulfonate): decrease | increase in indoximod Cmax versus equivalent molar dose of indoximod ([1]; capsules, methanesulfonate): decrease
SMILES: Cn1cc(C[C@@H](N)C(=O)OCC(O)CO)c2ccccc21 (stereo partly drawn) [NLG-1627, (2R)-1-(2,3-dihydroxypropoxy)-3-(1-methyl-1H-indol-3-yl)-1-oxopropan-2-aminium methanesulfonate]
